Test results reported in PubChem BioAssay (NCI).
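In this assay, cells in 96-well plates receive the compound at five concentrations for 48 hours. Endpoints are linearly interpolated between the surrounding concentrations. At the TGI there is no net growth.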

How the values were obtained:
Experiment in all cases: NCI tumour cell line growth inhibition, 48 h
[1] = system: SF-268 CNS
[2] = system: ACHN renal
[3] = system: K-562 leukemia
[4] = system: HL-60(TB) leukemia
[5] = system: RXF 393 renal
[6] = system: NCI-H460 lung
[7] = system: SR leukemia
[8] = system: DLD-1 colon
[9] = system: OVCAR-3 ovarian
[10] = system: A549 NSCLC
[11] = system: NCI-H522 lung
[12] = system: IGROV1 ovarian
[13] = system: SF-539 CNS
[14] = system: COLO 205 colon
[15] = system: SNB-78 CNS
[16] = system: MOLT-4 leukemia
[17] = system: A498 renal
[18] = system: NCI-H23 lung
[19] = system: NCI-H226 lung
[20] = system: UACC-257 melanoma
[21] = system: OVCAR-5 ovarian
[22] = system: HT29 colon
[23] = system: CCRF-CEM leukemia
[24] = system: HCT-116 colon
[25] = system: SK-OV-3 ovarian
[26] = system: SW-620 colon
[27] = system: SNB-19 CNS
[28] = system: MALME-3M melanoma
[29] = system: EKVX NSCLC
[30] = system: SK-MEL-5 melanoma
[31] = system: SK-MEL-2 melanoma
[32] = system: U251 CNS
[33] = system: SF-295 CNS
[34] = system: 786-0 renal
[35] = system: SN12C renal
[36] = system: RXF-631 renal
[37] = system: SK-MEL-28 melanoma
[38] = system: DMS 273 small cell lung
[39] = system: UO-31 renal
[40] = system: M19-MEL melanoma
[41] = system: UACC-62 melanoma
[42] = system: KM12 colon
[43] = system: SNB-75 CNS
[44] = system: HOP-18 NSCLC
[45] = system: RPMI-8226 leukemia
[46] = system: HCC-2998 colon
[47] = system: OVCAR-8 ovarian
[48] = system: LXFL 529 NSCLC
[49] = system: CAKI-1 renal
[50] = system: TK-10 renal
[51] = system: NCI/ADR-RES ovarian
[52] = system: LOX IMVI melanoma
[53] = system: XF 498 CNS
[54] = system: P388 leukemia
[55] = system: HOP-92 NSCLC
[56] = system: HOP-62 NSCLC
[57] = system: HCT-15 colon
[58] = system: KM20L2 colon
[59] = system: SN12K1 renal
[60] = system: P388/ADR leukemia
[61] = system: DMS 114 small cell lung
[62] = system: OVCAR-4 ovarian
[63] = system: MCF7 breast
[64] = system: M14 melanoma

`CC1=NN(C(=O)c2cc(Cl)cc([N+](=O)[O-])c2)C(=O)C1N=Nc1ccccc1C(=O)O` (stereo not given) was tested, and the TGI [1] was > 100 µM, the TGI [2] was > 100 µM and the TGI [3] was > 100 µM. For the same molecule, the TGI [4] was > 100 µM, the TGI [5] was > 100 µM and the TGI [6] was > 100 µM. The TGI [7] was > 100 µM, the TGI [8] was > 100 µM and the TGI [9] was > 100 µM. For the same molecule, the TGI [10] was > 100 µM, the TGI [11] was > 100 µM and the TGI [12] was > 100 µM. The TGI [13] was > 100 µM, the TGI [14] was > 100 µM and the TGI [15] was > 100 µM. The TGI [16] was > 100 µM, the TGI [17] was > 100 µM and the TGI [18] was > 100 µM. For the same molecule, the TGI [19] was > 100 µM, the TGI [20] was > 100 µM and the TGI [21] was > 100 µM. For the same molecule, the TGI [22] was > 100 µM, the TGI [23] was > 100 µM and the TGI [24] was > 100 µM. For the same molecule, the TGI [25] was > 100 µM, the TGI [26] was > 100 µM and the TGI [27] was > 100 µM. For the same molecule, the TGI [28] was > 100 µM, the TGI [29] was > 100 µM and the TGI [30] was > 100 µM. The TGI [31] was > 100 µM, the TGI [32] was > 100 µM and the TGI [33] was > 100 µM. For the same molecule, the TGI [34] was > 100 µM, the TGI [35] was > 100 µM and the TGI [36] was > 100 µM. For the same molecule, the TGI [37] was > 100 µM, the TGI [38] was > 100 µM and the TGI [39] was > 100 µM. The TGI [40] was > 100 µM, the TGI [41] was > 100 µM and the TGI [42] was > 100 µM. The TGI [43] was > 100 µM, the TGI [44] was > 100 µM and the TGI [45] was > 100 µM. For the same molecule, the TGI [46] was > 100 µM, the TGI [47] was > 100 µM and the TGI [48] was > 100 µM. The TGI [49] was > 100 µM and the TGI [50] was > 100 µM.
In the case of `CCOC(=O)C[n+]1ccc2c([nH]c3cc(OC)ccc32)c1C`, the TGI [1] is reported as > 100 µM, the TGI [3] is reported as > 100 µM and the TGI [4] is reported as > 100 µM. For the same molecule, the TGI [5] was > 100 µM, the TGI [51] was > 100 µM and the TGI [52] was > 100 µM. For the same molecule, the TGI [6] was > 100 µM, the TGI [8] was > 100 µM and the TGI [9] was > 100 µM. For the same molecule, the TGI [10] was > 100 µM, the TGI [53] was > 100 µM and the TGI [11] was > 100 µM. For the same molecule, the TGI [12] was > 100 µM, the TGI [13] was > 100 µM and the TGI [14] was > 100 µM. The TGI [15] was > 100 µM, the TGI [16] was > 100 µM and the TGI [17] was > 100 µM. The TGI [18] was > 100 µM, the TGI [19] was > 100 µM and the TGI [20] was > 100 µM. The TGI [21] was > 100 µM, the TGI [22] was > 100 µM and the TGI [23] was > 100 µM. The TGI [54] was > 100 µM, the TGI [55] was > 100 µM and the TGI [24] was > 100 µM. For the same molecule, the TGI [25] was > 100 µM, the TGI [26] was > 100 µM and the TGI [56] was > 100 µM. The TGI [27] was > 100 µM, the TGI [28] was > 100 µM and the TGI [57] was > 100 µM. The TGI [29] was > 100 µM, the TGI [30] was > 100 µM and the TGI [58] was > 100 µM. For the same molecule, the TGI [31] was > 100 µM, the TGI [32] was > 100 µM and the TGI [33] was > 100 µM. The TGI [35] was > 100 µM, the TGI [37] was > 100 µM and the TGI [38] was > 100 µM. The TGI [39] was > 100 µM, the TGI [59] was > 100 µM and the TGI [60] was > 100 µM. The TGI [40] was > 100 µM, the TGI [41] was > 100 µM and the TGI [42] was > 100 µM. For the same molecule, the TGI [43] was > 100 µM, the TGI [61] was > 100 µM and the TGI [44] was > 100 µM. The TGI [45] was > 100 µM, the TGI [46] was > 100 µM and the TGI [47] was > 100 µM. The TGI [62] was > 100 µM, the TGI [63] was > 100 µM and the TGI [49] was > 100 µM.
`CCCCCCCCCCCCCCC(O)C1CCC(C(O)CCC(O)CCCCCC(O)CC2=CC(C)OC2=O)O1` (stereo not given) was tested, and the TGI [1] was 12.2 µM, the TGI [3] was 3.68 µM and the TGI [4] was 1.56 µM. It also gave a TGI [52] of 4.59 µM, a TGI [64] of 22.8 µM and a TGI [8] of 11.9 µM. It also gave a TGI [9] of 4.76 µM, a TGI [10] of 13.2 µM and a TGI [53] of 4.88 µM. For the same molecule, the TGI [11] was 7.4 µM, the TGI [12] was 18.6 µM and the TGI [13] was 17.8 µM. It also gave a TGI [14] of 8.41 µM, a TGI [15] of 8.31 µM and a TGI [16] of 3.14 µM. The TGI [17] was 20.5 µM, the TGI [18] was 12.1 µM and the TGI [19] was 7.27 µM. For the same molecule, the TGI [20] was 2.94 µM, the TGI [21] was 20.3 µM and the TGI [22] was 8.68 µM. It also gave a TGI [23] of 5.12 µM, a TGI [55] of 11.7 µM and a TGI [24] of 11.1 µM. For the same molecule, the TGI [25] was 15 µM, the TGI [26] was 13.9 µM and the TGI [56] was 7.77 µM. It also gave a TGI [27] of 11.1 µM, a TGI [28] of 13.6 µM and a TGI [57] of 5.25 µM. It also gave a TGI [29] of 16.2 µM, a TGI [30] of 2.3 µM and a TGI [58] of 18.3 µM. The TGI [31] was 9.03 µM, the TGI [32] was 20.9 µM and the TGI [33] was 10.3 µM. The TGI [34] was 8.87 µM, the TGI [35] was 9.24 µM and the TGI [36] was 16.4 µM. For the same molecule, the TGI [37] was 10.1 µM, the TGI [38] was 4.75 µM and the TGI [39] was 6.78 µM. The TGI [40] was 11.2 µM, the TGI [41] was 13.3 µM and the TGI [43] was 8.88 µM. It also gave a TGI [61] of 4.57 µM, a TGI [45] of 2.75 µM and a TGI [46] of 4.94 µM. For the same molecule, the TGI [47] was 14.8 µM, the TGI [62] was 8.89 µM and the TGI [48] was 13 µM. For the same molecule, the TGI [49] was 20.8 µM and the TGI [50] was 17.9 µM.
